Source: US12590123B2, “Compounds and methods for treating cancer, viral infections, and allergic conditions” (Washington University, priority 2019, dated 2026)

Columns and labels:
activated hepsin = target: T1, activated hepsin (Homo sapiens, UniProt P05981); assay: Fluorescent kinetic enzyme assay of hepsin activity (Boc-QAR-AMC); format: biochemical; conditions: Table 2; read-out: Hepsin (IC50 nM)
T1 construct: purchased R&D Systems 4776-SE-010

[1] = target: T2, recombinant HGFA serine protease domain (Homo sapiens, UniProt Q04756); assay: Fluorescent kinetic enzyme assay of HGFA activity (Boc-QLR-AMC); format: biochemical; conditions: Table 2; read-out: HGFA (IC50 nM)
T2 construct: His6 tag (N); seven amino acid spacer plus TEV cleavage site (N); made in house; host or cells: High 5 insect cells (baculovirus; Sf9 for virus production)
T2 sequence (Q04756 373-655): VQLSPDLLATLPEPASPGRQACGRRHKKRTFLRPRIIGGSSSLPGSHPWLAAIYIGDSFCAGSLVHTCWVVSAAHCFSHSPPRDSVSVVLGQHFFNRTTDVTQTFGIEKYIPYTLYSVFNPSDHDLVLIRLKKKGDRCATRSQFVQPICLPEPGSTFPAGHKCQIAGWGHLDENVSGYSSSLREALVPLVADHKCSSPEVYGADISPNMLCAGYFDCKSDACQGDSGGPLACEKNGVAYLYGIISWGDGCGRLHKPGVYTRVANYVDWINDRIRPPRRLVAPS
Method in brief: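 His-tagged HGFA protease domain from baculovirus-infected High 5 cells, 6.25 nM in pH 8 Tris/NaCl/5 mM CaCl2/0.01% Triton X-100 with 2% DMSO. IC50 from four-parameter velocity fit (≥3 runs); apparent Ki by Cheng–Prusoff.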

T1 sequence (P05981 163-417 limits assumed): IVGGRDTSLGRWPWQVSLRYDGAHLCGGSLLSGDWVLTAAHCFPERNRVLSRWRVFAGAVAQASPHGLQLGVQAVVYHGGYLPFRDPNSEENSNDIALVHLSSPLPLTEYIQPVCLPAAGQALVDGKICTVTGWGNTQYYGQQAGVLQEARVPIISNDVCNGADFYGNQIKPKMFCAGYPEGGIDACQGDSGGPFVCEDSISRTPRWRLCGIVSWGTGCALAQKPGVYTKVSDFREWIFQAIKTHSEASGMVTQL
T1 sequence (P05981 1-162 partner limits assumed): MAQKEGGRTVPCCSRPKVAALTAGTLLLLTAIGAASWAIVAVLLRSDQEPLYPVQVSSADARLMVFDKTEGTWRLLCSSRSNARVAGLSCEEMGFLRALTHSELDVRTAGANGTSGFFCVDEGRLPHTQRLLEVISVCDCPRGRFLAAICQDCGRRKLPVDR

IC50 (activated hepsin): 17.4 nM | IC50 [1]: 3170 nM
Compound: CC(=O)N[C@H]1CC(=O)NCCCC[C@@H](C(=O)N[C@@H](CCCNC(=N)N)C(=O)c2nc3ccccc3s2)NC(=O)[C@H](Cc2ccccc2)NC1=O [VD3112, (3S,6S,14S)-6-acetamido-N—((S)-1-(benzo[d]thiazol-2-yl)-5-guanidino-1-oxopentan-2-yl)-3-benzyl-2,5,8-trioxo-1,4,9-triazacyclotetradecane-14-carboxamide]
